Active and inactive are the calls of the source. The calls are words filed in the database; no cut-off is given here.
Experiments:
PC-12 [1] = test: Neuroprotective activity in rat PC-12 cells assessed as increase in NGF-mediated neurite outgrowth by measuring differentiated cells at 5 to 250 nM in presence of 1 uM NE-100 incubated for 72 hrs by bright-field microscopic analysis; format: functional, cell-based; conditions: dose 5-250 nM
[2] = molecular target: Sigma non-opioid intracellular receptor 1 (Cavia porcellus, UniProt Q60492); test: Displacement of [3H](+)-pentazocine from sigma 1 receptor in guinea pig brain membranes measured after 120 mins by scintillation counting method; format: cell membranes, Membrane
PC-12 [3] = test: Neuroprotective activity in rat PC-12 cells assessed as increase in NGF-mediated neurite outgrowth by measuring differentiated cells at 5 to 250 nM incubated for 72 hrs by bright-field microscopic analysis; format: functional, cell-based; conditions: dose 5-250 nM
PC-12 [4] = test: Cytotoxicity against rat PC-12 cells assessed as cell death at 0.25 uM after 72 hrs incubation by LDH-based cytotoxic assay; format: toxicity; conditions: pc-12, 72 h
[5] = molecular target: Sigma non-opioid intracellular receptor 1 (Cavia porcellus) (UniProt Q60492); test: Displacement of [3H](+)-pentazocine from sigma 1 receptor in guinea pig brain membranes measured after 120 mins by scintillation counting method relative to control; format: cell membranes; conditions: Membrane
Sigma non-opioid intracellular receptor 1 (Cavia porcellus), sequence (Q60492 whole entry): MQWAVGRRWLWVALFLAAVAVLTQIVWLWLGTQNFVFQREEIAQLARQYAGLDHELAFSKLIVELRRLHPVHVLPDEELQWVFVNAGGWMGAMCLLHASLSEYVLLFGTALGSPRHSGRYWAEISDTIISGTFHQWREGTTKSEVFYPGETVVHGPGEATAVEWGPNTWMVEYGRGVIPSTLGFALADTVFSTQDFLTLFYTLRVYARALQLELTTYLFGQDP

Sigma non-opioid intracellular receptor 1, sequence (Q60492 whole entry): as above

Row | SMILES | Activity (PC-12 [1]) | Ki [2] [nM] | Activity (PC-12 [3]) | Activity (PC-12 [4]) | inhibition [5] [%]
1 | C[C@H](CCN1CCC(NC(=O)COCCOCC(=O)NC2CCN(CC[C@@H](C)c3ccc(-c4ccccc4)cc3)CC2)CC1)c1ccc(-c2ccccc2)cc1 | inactive | 2.6 | Active | Non-Toxic | –
2 | C[C@H](CCN1CCC(NC(=O)CCCCCC(=O)NC2CCN(CC[C@@H](C)c3ccc(-c4ccccc4)cc3)CC2)CC1)c1ccc(-c2ccccc2)cc1 | – | 1300 | – | – | –
3 | C[C@H](CCN1CCC(NC(=O)c2ccccc2C(=O)NC2CCN(CC[C@@H](C)c3ccc(-c4ccccc4)cc3)CC2)CC1)c1ccc(-c2ccccc2)cc1 | – | 134 | – | – | –
4 | C[C@H](CCN1CCC(NC(=O)COCCOCCOCCOCCNC(=O)c2ccccc2)CC1)c1ccc(-c2ccccc2)cc1 | – | 1600 | – | – | –
5 | C[C@H](CCN1CCC(NC(=O)CCOCCOCCOCCOCCOCCOCCOCCOCCOCCC(=O)NC2CCN(CC[C@@H](C)c3ccc(-c4ccccc4)cc3)CC2)CC1)c1ccc(-c2ccccc2)cc1 | – | 799 | – | – | –
6 | C[C@H](CCN1CCC(NC(=O)COCC(=O)NC2CCN(CC[C@@H](C)c3ccc(-c4ccccc4)cc3)CC2)CC1)c1ccc(-c2ccccc2)cc1 | – | – | – | – | 0
7 | C[C@H](CCN1CCC(NC(=O)CC(=O)NC2CCN(CC[C@@H](C)c3ccc(-c4ccccc4)cc3)CC2)CC1)c1ccc(-c2ccccc2)cc1 | inactive | 200 | Active | Non-Toxic | –
8 | C[C@H](CCN1CCC(NC(=O)CCCC(=O)NC2CCN(CC[C@@H](C)c3ccc(-c4ccccc4)cc3)CC2)CC1)c1ccc(-c2ccccc2)cc1 | – | 622 | – | – | –
9 | CC(=O)NC1CCN(CC[C@@H](C)c2ccc(-c3ccccc3)cc2)CC1 | inactive | 11 | Active | Non-Toxic | –
10 | C[C@H](CCN1CCCCC1)c1ccc(-c2ccccc2)cc1 | inactive | – | Active | Non-Toxic | –

Reference: ChEMBL document CHEMBL5230153, “Bitopic Sigma 1 Receptor Modulators to Shed Light on Molecular Mechanisms Underpinning Ligand Binding and Receptor Oligomerization” (J Med Chem, 2021)
